# Where “and” joins values, the source holds several entries; their conditions need not be identical. Equal values may be shown once.
# Molecular target: SARS-CoV-2 Main Protease (SARS-CoV-2) (UniProt P0DTD1)
row,Structure (SMILES),IC50
1,COc1ccc2c(NC(=O)Cc3cccc(Cl)c3)noc2c1,> 99500 nM
2,O=C(Cc1cc(Cl)cc(NCc2ccc(Br)cc2F)c1)Nc1cncc2ccccc12,3490 nM
3,C=CC(=O)N1CCN(S(=O)(=O)c2cccs2)CC1,> 99500 nM
4,Cc1ccc2c(NC(=O)Cc3cccc(Cl)c3)cncc2c1,1240 nM
5,N#Cc1ccc(Cl)c(Nc2cc(Cl)cc(CC(=O)Nc3cncc4ccccc34)c2)c1,1990 nM
6,C[C@@H]1NC(=O)c2ccc(Cl)cc2[C@@H]1C(=O)Nc1cncc2ccccc12 (stereo in doubt),454 nM
7,CC(C)(C)c1ccc(N(C(=O)c2ccco2)C(C(=O)NCCc2cccc(F)c2)c2cnc3ccccn23)cc1 (configuration not stated),37500 nM
8,CC(NC(=O)CCl)c1cc(Cl)cc(-c2ccc(S(N)(=O)=O)cc2)c1 (configuration not stated),466 nM
9,CC(C)(C)c1ccc(N(C(=O)c2ccco2)C(C(=O)Nc2ccccc2)c2cccnc2)cc1 (configuration not stated),11200 nM
10,Cc1cc(Br)c(Cl)cc1Nc1cc(Cl)cc(CC(=O)Nc2cncc3ccccc23)c1,2020 nM
11,CN1CC(C#N)(CS(=O)(=O)N2Cc3ccc(Cl)cc3C(C(=O)Nc3cncc4ccccc34)C2)C1 (configuration not stated),151 nM
12,CC(C)(C)c1ccc(N(C(=O)c2cnc(C(C)(C)CF)o2)C(C(=O)NCCc2cccc(F)c2)c2cccnc2)cc1 (configuration not stated),> 99500 nM
13,COc1c(Cl)cccc1Nc1cc(Cl)cc(CC(=O)Nc2cncc3ccccc23)c1,1680 nM
14,Cc1ccncc1C(C(=O)NCCc1cccc(F)c1)N(C(=O)c1cocn1)c1ccc(C(C)(C)C)cc1 (configuration not stated),653 nM
15,O=C(CN1Cc2ccc(Cl)cc2C(C(=O)Nc2cncc3ccccc23)C1)NC1CC1 (configuration not stated),76 nM and 99 nM and 186 nM
16,Cc1ccc(Cl)cc1N1CCN(c2cc(Cl)cc(CC(=O)Nc3cncc4ccccc34)c2)CC1,3370 nM
17,O=C(Nc1cncc2ccccc12)C1CN(C(=O)C2CC2)Cc2ccc(Cl)cc21 (configuration not stated),487 nM
18,O=C(Cc1ccc(Cl)c(Cl)c1)Nc1cncc2ccncc12,1790 nM
19,O=C(NCc1ccccc1)[C@H]1CN(C(=O)CCl)CCN1S(=O)(=O)c1ccsc1 (stereo in doubt),621 nM
20,O=C(Cc1cc(Cl)cc(Nc2cc(Cl)nc(Cl)n2)c1)Nc1cncc2ccccc12,1830 nM
21,O=C(Cc1cc(Cl)cc2c1OCC2)Nc1cncc2ccccc12,1130 nM and 1870 nM
22,N#Cc1cc(N(C(=O)c2ccco2)C(C(=O)NCCc2cccc(F)c2)c2cccnc2)ccc1Oc1ccc(C(F)(F)F)cc1 (configuration not stated),> 99500 nM
23,COc1ccccc1OCC(C)NC(=O)c1cc(=O)[nH]c2cc(F)ccc12 (configuration not stated),40500 nM and 26900 nM
24,CC(C)(O)c1ccc2cncc(NC(=O)C3CN(S(=O)(=O)CC4(C#N)CC4)Cc4ccc(Cl)cc43)c2c1 (configuration not stated),1140 nM
25,C=CS(=O)(=O)N1CCN(S(=O)(=O)c2ccccc2)CC1,> 99500 nM

row,Structure (SMILES),IC50
1,O=C(Nc1cncc2ccccc12)C1CN(CC2CC2)C(=O)c2ccc(Cl)cc21 (configuration not stated),381 nM
2,CC(C)(C)c1ccc(N(C(=O)c2cn(CCN3CCOCC3)nn2)C(C(=O)NCCc2cccc(F)c2)c2cccnc2)cc1 (configuration not stated),10500 nM
3,O=C(Cc1cc(Cl)cc(N[C@H](c2ccccc2)[C@@H](O)c2ccccc2)c1)Nc1cncc2ccccc12 (stereo in doubt),2240 nM
4,C#CCCCC(=O)N[C@H](C(=O)N[C@H](CC(C)C)C(=O)NN(CCC(N)=O)C(=O)/C=C/C(=O)OC)C(C)(C)C (stereo in doubt),< 50 nM and 44 nM
5,O=C(Cc1cc(Cl)cc(Nc2ccc(I)cc2)c1)Nc1cncc2ccccc12,1840 nM
6,O=C(NCCc1cccc(F)c1)C(c1cccnc1)N(C(=O)c1cocn1)c1ccc2nc(C(F)(F)F)[nH]c2c1 (configuration not stated),77600 nM
7,O=C(Cc1cc(Cl)cc(Nc2ncc(F)cc2Br)c1)Nc1cncc2ccccc12,1840 nM
8,C=CC(=O)N(c1ccc(C(F)(F)F)cc1)C(C(=O)Nc1c(C)cccc1CC)c1cccnc1 (configuration not stated),97800 nM
9,C#CCCCC(=O)N[C@H](C(=O)N[C@H](CC(C)C)C(=O)NN(CCC(N)=O)C(=O)C1OC1C(=O)OCC)C(C)(C)C (stereo in doubt),292 nM and 206 nM
10,Cc1nc2ccc(NC(=O)NCc3ccc4[nH]c(=O)[nH]c4c3)cc2o1,> 99500 nM
11,CS(=O)(=O)c1ccc2c(NC(=O)C3CN(CC(=O)NC4COC4)C(=O)c4ccc(Cl)cc43)cncc2c1 (configuration not stated),866 nM
12,CN(C)c1ccc(N(Cc2cscn2)C(=O)Cn2nnc3ccccc32)cc1,4850 nM
13,O=C(NCCc1cccc(F)c1)C(c1cccnc1)N(C(=O)c1cocn1)C1COC2(CCCC2)C1 (configuration not stated),> 99500 nM
14,Cn1cnc2cc(N(C(=O)c3cocn3)C(C(=O)NCCc3cccc(F)c3)c3cccnc3)ccc21 (configuration not stated),> 99500 nM
15,O=C(Nc1cncc2sc(Cl)cc12)C1CCOc2ccc(Cl)cc21 (configuration not stated),1030 nM
16,Cn1cncc1C(=O)N1Cc2ccc(Cl)cc2C(C(=O)Nc2cncc3ccccc23)C1 (configuration not stated),224 nM
17,C[C@]1(C(=O)Nc2cncc3ccccc23)CCNc2cc(Cl)c(Cl)cc21 (stereo in doubt),97700 nM
18,CCN(c1ccccc1)S(=O)(=O)c1ccc(OC)c(NC(=O)CCl)c1,3230 nM
19,O=C(Nc1ccccc1)[C@@H]1CN(C(=O)CCl)CCN1S(=O)(=O)c1ccsc1 (stereo in doubt),716 nM
20,N#CCCN1CCN(C(=O)CC2(C(=O)Nc3cncc4ccccc34)CCOc3ccc(Cl)cc32)CC1 (configuration not stated),21300 nM
21,COc1cc(Nc2cc(Cl)cc(CC(=O)Nc3cncc4ccccc34)c2)nc(OC)n1,2210 nM
22,O=C(Cc1cc(Cl)cc(NCCCN2CCS(=O)(=O)CC2)c1)Nc1cncc2ccccc12,1920 nM
23,O=C(NCCc1cccc(F)c1)C(c1cccnc1)N(C(=O)c1cnc[nH]1)c1ccc(OC2CCOC2)cc1 (configuration not stated),25800 nM
24,O=C(Cc1cc(Cl)cc(Nc2c(F)cc(Br)cc2F)c1)Nc1cncc2ccccc12,1540 nM
25,O=C(Cc1cc(Cl)cc(Nc2ccc(O)cc2[N+](=O)[O-])c1)Nc1cncc2ccccc12,5330 nM

row,Structure (SMILES),IC50
1,CNC(=O)CN1CC(C(=O)Nc2cncc3cc(NS(C)(=O)=O)ccc23)c2cc(Cl)ccc2C1=O (configuration not stated),< 50 nM and 44.2 nM
2,CN(C)S(=O)(=O)N1Cc2ccc(Cl)cc2C(C(=O)Nc2cnccc2C(F)(F)F)C1 (configuration not stated),28800 nM
3,O=C(NCCc1cccc(F)c1)C(c1cccnc1)N(C(=O)c1cnc[nH]1)c1ccc(Cn2cccn2)cc1 (configuration not stated),35500 nM
4,Cc1cc(C(=O)CCl)c(C)n1CC1COc2ccccc2O1 (configuration not stated),2820 nM
5,CC(C)(C)c1ccc(N(C(=O)c2cocn2)C(C(=O)NCCN2CCOCC2)c2cccnc2)cc1 (configuration not stated),82500 nM
6,O=C(O)CN1C(=O)C(=O)c2cc([N+](=O)[O-])ccc21,> 99500 nM
7,COc1ccc(Cl)cc1N1C(=O)CN(Cc2cc(=O)[nH]c3ccccc23)C1=O,> 99500 nM
8,O=C(CCl)N1CCN(Cc2cccc3ccccc23)CC1,5760 nM
9,Cc1cc(Nc2ccc3nc(C)sc3c2)n2ncnc2n1,> 99500 nM
10,COCCn1nc(C(=O)N(c2ccc(C(C)(C)C)cc2)C(C(=O)NCCc2cccc(F)c2)c2cccnc2)ccc1=O (configuration not stated),> 99500 nM
11,Cc1ccncc1N1CCC(c2cccc(Cl)c2)C1=O (configuration not stated),44700 nM
12,Cc1nnc(CNc2ccc3nnc(-c4ccccc4)n3n2)o1,> 99500 nM
13,CS(=O)(=O)Nc1cccc(C2=NN(C(=O)CCl)C(c3ccccc3)C2)c1 (configuration not stated),5830 nM
14,CCS(=O)(=O)c1ccc(CNS(=O)(=O)c2cnc(-c3ccccc3)s2)s1,> 99500 nM
15,Cc1cc(O)ncc1NC(=O)C1CCOc2ccc(Cl)cc21 (configuration not stated),> 99500 nM
16,COc1ccc2cncc(N3CCC4(CN(S(=O)(=O)CC5(C#N)CC5)Cc5ccc(Cl)cc54)C3=O)c2c1 (configuration not stated),215 nM
17,CCNC(=O)CN1CC2(CCN(c3cncc4ccccc34)C2=O)c2cc(Cl)ccc2S1(=O)=O (configuration not stated),275 nM
18,COc1cc(C)ccc1CN(C(=O)c1cocn1)C(C(=O)NCCc1cccc(F)c1)c1cccnc1 (configuration not stated),> 99500 nM
19,COc1ccccc1NCCNC(=O)c1cc(=O)[nH]c2ccccc12,> 99500 nM
20,O=C(Cc1nnn2ccccc12)N(Cc1ccccc1)c1ccc(N2CCCCC2)cc1,> 99500 nM
21,O=C(Cc1cc(Cl)cc(N2CCN(CCc3ccccc3)CC2)c1)Nc1cncc2ccccc12,5020 nM
22,Nc1ccc2c(c1)C(=O)N(c1cc(Cl)cc(CC(=O)Nc3cncc4ccccc34)c1)C2=O,1860 nM
23,Cc1ccncc1NC(=O)Cc1cc(Cl)cc(NCC(C)(C)C#N)c1,36500 nM
24,O=C(Cc1cc(Cl)cc(Nc2ccc(Br)c(Cl)c2Cl)c1)Nc1cncc2ccccc12,2410 nM
25,O=C(CCl)NC(CO)c1cccc(Cl)c1 (configuration not stated),> 99000 nM

row,Structure (SMILES),IC50
1,CC(C)(c1ccc(N(C(=O)c2cocn2)C(C(=O)NCCc2cccc(F)c2)c2cccnc2)cc1)S(C)(=O)=O (configuration not stated),67800 nM
2,O=C(Nc1cncc2ccccc12)C1CCOc2c(O)ccc(Cl)c21 (configuration not stated),> 99500 nM
3,O=C(Cc1cc(Cl)cc(N2CCC(C(F)(F)F)CC2)c1)Nc1cncc2ccccc12,1430 nM
4,C[C@H](C(=O)Nc1cncnc1)c1ccccc1 (stereo in doubt),> 99500 nM
5,CC(C)(C)c1ccc(N(C(=O)c2ccco2)C(C(=O)NCCc2cccc(F)c2)c2cncc3ccccc23)cc1 (configuration not stated),403 nM
6,Cc1ccccc1CC(=O)Nc1cncc2ccccc12,29500 nM
7,CN(C)C(=O)CN1CC(C(=O)Nc2cncc3ccccc23)c2cc(Cl)ccc2C1=O (configuration not stated),734 nM
8,O=C(CN1CC(C(=O)Nc2cncc3ccccc23)c2cc(Cl)ccc2C1=O)NCC1CC1 (configuration not stated),72.6 nM and 122 nM
9,CC(C)C[C@@H]1CN(C(=O)CCl)CCN1Cc1cccc(Cl)c1 (stereo in doubt),784 nM
10,COc1cccc(CC(=O)Nc2cncc3ccccc23)c1,30500 nM
11,N#CC1(CS(=O)(=O)N2Cc3ccc(Cl)cc3C3(CCN(c4cncc5cccc(Cl)c45)C3=O)C2)CC1 (configuration not stated),7790 nM
12,O=C1NCC(C(=O)Nc2cncc3cc(F)ccc23)c2cc(Cl)ccc21 (configuration not stated),1150 nM
13,Cc1ccc([N+](=O)[O-])c(Nc2cc(Cl)cc(CC(=O)Nc3cncc4ccccc34)c2)c1,2260 nM
14,O=C(NCCNc1ccccc1)c1cc(=O)[nH]c2ccccc12,> 99500 nM
15,COc1ccccc1OC1CN(C(=O)c2cc(=O)[nH]c3ccccc23)C1,> 99500 nM
16,CS(=O)(=O)c1ccc(N2CCNCC2)cc1,> 99500 nM
17,COC1(CS(=O)(=O)N2CC(C(=O)Nc3cncc4cc(S(C)(=O)=O)ccc34)c3cc(Cl)ccc3C2=O)CC1 (configuration not stated),773 nM
18,CS(=O)(=O)N1CCc2ccc(CN3CCN(C(=O)CCl)CC3)cc2C1,40200 nM
19,Cc1cc(C)n(-c2cc(Cl)cc(CC(=O)Nc3cncc4ccccc34)c2)c(=O)c1CN,2410 nM
20,Cn1cnc(C(=O)N(c2ccc(C(C)(C)C)cc2)C(C(=O)NCCc2cccc(F)c2)c2cccnc2)n1 (configuration not stated),74200 nM
21,Cc1nc2ccc(NS(=O)(=O)c3cccc4nonc34)cc2o1,> 99500 nM
22,O=C(Cc1cc(Cl)cc(N2CC=C(c3ccccc3)CC2)c1)Nc1cncc2ccccc12,1660 nM

# From the COVID Moonshot data (paper PMC7615835)
